Data as given in patent US20050089524A1, “Compositions and compounds for use as molecular adjuvant for a nicotine vaccine” (priority 2002, published 2005).
Square brackets hold non-standard residues; d marks the D form. Peptide text beside a SMILES is read from it.

Assays:
human umbilical artery = assay: Smooth muscle contraction of human umbilical artery; assay type: cell-based
Experimental: (§1) Pharmacologic assays. […] Statistical analysis of the values obtained from pharmacologic assays was performed using one-way analysis of variance (ANOVA).

human PMNs = assay: MPO release from human PMNs; assay type: cell-based
Experimental: as §1

C5aR = molecular target: T1, C5aR (Homo sapiens, UniProt P21730); assay: Binding affinity for C5aRs on human PMNs (125I-C5a competition)
T1 construct: endogenous in cells; host or cells: intact human PMNs (polymorphonuclear leukocytes)
T1 sequence (P21730 1-350): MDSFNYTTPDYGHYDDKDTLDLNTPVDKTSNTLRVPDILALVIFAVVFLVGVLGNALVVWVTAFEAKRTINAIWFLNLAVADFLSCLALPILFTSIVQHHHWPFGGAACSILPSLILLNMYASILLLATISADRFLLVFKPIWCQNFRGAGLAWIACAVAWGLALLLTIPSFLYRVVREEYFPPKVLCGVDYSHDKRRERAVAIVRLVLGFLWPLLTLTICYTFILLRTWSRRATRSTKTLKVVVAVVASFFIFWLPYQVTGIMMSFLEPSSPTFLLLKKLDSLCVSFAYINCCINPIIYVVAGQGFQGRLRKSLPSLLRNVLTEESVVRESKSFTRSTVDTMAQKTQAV
Experimental: Pharmacologic assays. C5a-like agonistic activity was assessed by the ability of the peptides to induce smooth muscle contraction of human umbilical artery and […] from human PMNs according to previously published methods (Sanderson et al., 1994, supra; Sanderson et al., J. Med. Chem. 38, 3669, 1995; Finch et al., J. Med. Chem. 40, 877, 1997). Full concentration-response curves were generated for individual peptides and natural C5a in each assay and the EC50 values (the concentration of peptide producing 50% of the maximal response to each peptide) were calculated. pD2 transforms [−log EC50 (M)] were calculated for each concentration-response curve and reported as the mean±SE. Peptide binding affinity to the C5aR was evaluated on intact human PMNs by a competition assay using ^125I-C5a according to previously described methods (Sanderson et al., 1995, supra; Finch et al., 1997, supra). Statistical analysis of the values obtained from pharmacologic assays was performed using one-way analysis of variance (ANOVA).

[1] = system: 51Cr-labeled P815S (HBsAg transfectant) target cells; assay: HBsAg-specific CTL response of immunized mice (51Cr-release assay); assay type: in vivo, BALB/c mice; details: for % Specific Lysis: s.c. in PBS, boost day 21, spleen cells day 42
[2] = system: immunizing peptide and free peptides; assay: ELISA of sera from mice immunized with HBsAg CTL epitope-C5a agonist constructs; assay type: in vivo; details: 1:50 dilution of the serum
Experimental: Immunization protocols. Groups of six to eight BALB/c mice were given bilateral s.c. injections in the inguinal area with (100 μl each side) of a PBS solution containing 50-100 μg of the peptides. Booster injections were given s.c. in the inguinal region at 21-day intervals. Sera for Ab analysis were obtained by retro-orbital bleeds of mice under CO2 narcosis.
Antibodies to the HBsAg CTL epitope or the C5a agonist are not produced by immunization with the HBsAg CTL epitope-C5a agonist constructs. […] Thus, it was of interest to determine whether sera from mice immunized with the control peptides and epitope-C5a agonist constructs contained antibody directed against any of the peptides. […] (SEQ ID NO: 12), […]

CC[C@H](C)[C@H](N)C(=O)N1CCC[C@H]1C(=O)N[C@@H](CCC(N)=O)C(=O)N[C@@H](CO)C(=O)N[C@@H](CC(C)C)C(=O)N[C@@H](CC(=O)O)C(=O)N[C@@H](CO)C(=O)N[C@@H](Cc1c[nH]c2ccccc12)C(=O)N[C@@H](Cc1c[nH]c2ccccc12)C(=O)N[C@H](C(=O)N[C@@H](CO)C(=O)N[C@@H](CC(C)C)C(=O)N[C@@H](CCCNC(=N)N)C(=O)N[C@@H](CCCNC(=N)N)C(=O)N[C@@H](Cc1ccc(O)cc1)C(=O)N[C@@H](CO)C(=O)N[C@@H](Cc1ccccc1)C(=O)N[C@@H](CCCCN)C(=O)N1CCC[C@H]1C(=O)N[C@@H](CCSC)C(=O)N1CCC[C@H]1C(=O)N[C@@H](CC(C)C)C(=O)N[C@H](C)C(=O)N[C@@H](CCCNC(=N)N)C(=O)O)[C@@H](C)O (H-IPQSLDSWWTSLRRYSFKPMPL[dA]R-OH; N-terminus assumed)
EC50 (human umbilical artery; concentration resulting in 50% maximum contraction): 0.161 µM
pD2 ± SE (human umbilical artery; −log EC50 (M), mean ± SE, n 3): 6.79 ± 0.31
EC50 (human PMNs; concentration resulting in 50% maximum release of myeloperoxidase): 0.54 µM
pD2 ± SE (human PMNs; −log EC50 (M), mean ± SE, n 3): 6.27 ± 0.29
EC50 (C5aR): 0.416 µM
IC50 (C5aR): 0.417 µM
% Specific Lysis ([1]; Effector:Target Ratio 6.25:1): 9%
% Specific Lysis ([1]; Effector:Target Ratio 12.5:1): 14%
% Specific Lysis ([1]; Effector:Target Ratio 25:1): 23%
% Specific Lysis ([1]; Effector:Target Ratio 50:1): 32%
antigen-specific CTL response ([1]; three s.c. injections of 50 μg at 21 day intervals, no added adjuvant): generated an antigen-specific CTL response
serum binding to the free C5a agonist and CTL epitope peptides (ELISA) [2]: did not bind the free peptides
